How the values were obtained:
[1] = tested on: platinum-sensitive relapsed ovarian cancer and a BRCA1/2 mutation; design: method as in PMID 28754483; details: maintenance treatment, vs placebo; cited from earlier work
[2] = tested on: patients with advanced solid tumours; details: human, in vivo
Text: This phase 1 open-label, multicentre, dose-escalation, and safety expansion study evaluated veliparib in combination with bimonthly FOLFIRI in patients with advanced solid tumours. The primary objectives were to determine the maximum tolerated dose (MTD) and establish the recommended phase 2 dose (RP2D) of the combination therapy. Secondary objectives were to assess the safety and tolerability, PK profile, and exploratory efficacy of the combination for each of the FOLFIRI regimens. Patients received veliparib and bimonthly FOLFIRI in 28-day cycles. Veliparib was administered on days 15–19 in cycle 1 and on days 1–5 and 15–19 in subsequent cycles (Fig. 1). Patients with stable disease or better status could continue veliparib and bimonthly FOLFIRI at the investigator’s discretion until progressive disease (PD), unacceptable toxicity, or FOLFIRI discontinuation. The trial was registered with the ClinicalTrials.gov registry (NCT01123876) and was approved by appropriate independent ethics committees/institutional review boards prior to initiation. The study was performed in accordance with the 1964 Declaration of Helsinki and its later amendments. Written informed consent was obtained from all patients before study enrollment.
Dose escalation occurred in three parts to evaluate the MTD/RP2D of three different bimonthly FOLFIRI regimens in combination with veliparib (Fig. 1). A minimum of three patients per dose level were included for dose-toxicity modeling. In part 1, dose escalation began with veliparib twice daily (BID) on days 15–19 of cycle 1 (to allow the determination of single-agent PK for irinotecan, the active metabolite of irinotecan (SN-38), folinic acid, and 5-FU on cycle 1 day 1). In parts 2 and 3, dose escalation began with veliparib BID on day 15 of cycle 1. The differences in the dosing schedules of parts 1, 2, and 3 relate to dosing of irinotecan and 5-FU, and are detailed in Fig. 1. In all parts, veliparib continued to be administered on days 1–5 and 15–19 of each subsequent 28-day cycle. […]

[3] = Pharmacokinetics of FOLFIRI components with and without veliparib (relative bioavailability); details: for Cmax: human, plasma, intravenous, central value; for 90% CIs for the relative bioavailability (Cmax and AUCt): presence (cycle 1 day 15) vs absence (cycle 1 day 1) of veliparib
Method: Treatment-emergent adverse events (TEAEs) were assessed from the time of study drug administration until 30 days following discontinuation of study drug. TEAEs were assessed according to the National Cancer Institute Common Terminology Criteria for Adverse Events version 4.0. In dose-escalation cohorts, blood samples were collected on day 15 of cycle 1 for veliparib PK, and on days 1 and 15 of cycle 1 for PK assessment of the FOLFIRI components irinotecan, SN-38, folinic acid (leucovorin), and 5-FU. Exploratory efficacy end points included objective response rate (ORR), time to disease progression (TTP), duration of overall response (DOR), and ECOG performance status. Objective response rate included confirmed complete response (CR) and partial response (PR). Objective response rate evaluation was based on Response Evaluation Criteria in Solid Tumours version 1.1. Objective response rate was calculated for all patients with one or more measurable lesions at baseline. Time to disease progression was defined as the number of days from the date the patient started study drug to the date of the patient’s disease progression. Duration of overall response was defined as the number of days from the day criteria were met for CR or PR (whichever was recorded first) to the date that PD was objectively documented. If a patient was still responding, the patient’s data were censored at the date of the last study visit at which a tumour assessment was performed. Analyses of change and/or percentage change from baseline for tumour size were performed for each scheduled post-baseline visit and for the final visit. ECOG performance status was assessed at all visits, with descriptive statistics summarised for each assessment. In addition, a mean change from baseline to each assessment time was summarised.
The sample size was based on clinical justification. No specific statistical hypothesis tests were planned, with descriptive statistics used for the analysis of safety, PK, and tumour response data. The study population for all safety and preliminary efficacy analyses included patients who received one or more doses of study medication. Data from parts 1–3 of the dose-escalation cohort were combined for assessment of the effect of veliparib on the PK of irinotecan, SN-38, and folinic acid. Linear mixed effects models were performed on natural logarithmically transformed maximum plasma concentration (Cmax) and area under the plasma or serum concentration-time curve (AUC) to compare exposure of irinotecan, SN-38, and folinic acid with and without the administration of veliparib. Point estimates and the corresponding 90% confidence intervals (CIs) of the ratio of central values with and without veliparib administration were calculated.

[4] = FOLFIRI + veliparib, cycle 1 day 15

| Structure (SMILES) | 90% CIs for the relative bioavailability (Cmax and AUCt) [3] | AUCt, central value, test [3, 4] | Cmax, central value, test [3, 4] | AUCt, central value, reference ([3]; FOLFIRI alone, cycle 1 day 1) | Cmax, central value, reference ([3]; FOLFIRI alone, cycle 1 day 1) | also measured |
| --- | --- | --- | --- | --- | --- | --- |
| O=C(c1cc(Cc2n[nH]c(=O)c3ccccc23)ccc1F)N1CCN(C(=O)C2CC2)CC1 [olaparib] | – | – | – | – | – | Median PFS [1]: 19.1 months |
| O=c1[nH]cc(F)c(=O)[nH]1 [5-FU, 5-fluorouracil] | – | – | – | – | – | Tolerability of 400 mg/m^2 bolus 5-FU dose [2]: not tolerated; Median ratio of 5-FU concentrations, cycle 1 day 15 to cycle 1 day 1 ([3]; 2 h after the start of infusion): 1.03; Median ratio of 5-FU concentrations, cycle 1 day 15 to cycle 1 day 1 ([3]; 24 h after the start of infusion): 0.95 |
| CCc1c2c(nc3ccc(OC(=O)N4CCC(N5CCCCC5)CC4)cc13)-c1cc3c(c(=O)n1C2)COC(=O)[C@]3(O)CC [Irinotecan, irinotecan] | within the pre-established boundaries of 0.80 to 1.25 | – | – | – | – | AUC0–24, central value, reference ([3]; FOLFIRI alone, cycle 1 day 1): 10620 ng·h/mL; Cmax ([3]; reference, FOLFIRI alone, cycle 1 day 1): 1780 ng/mL; Cmax ([3]; test, FOLFIRI + veliparib, cycle 1 day 15): 1790 ng/mL |
| CCc1c2c(nc3ccc(O)cc13)-c1cc3c(c(=O)n1C2)COC(=O)[C@]3(O)CC [SN-38] | within the pre-established boundaries of 0.80 to 1.25 | 157.8 ng·h/mL | 17.65 ng/mL | 157.9 ng·h/mL | 18.31 ng/mL | – |
| Nc1nc2c(c(=O)[nH]1)N(C=O)[C@H](CNc1ccc(C(=O)N[C@@H](CCC(=O)O)C(=O)O)cc1)CN2 [(R)-Leucovorin, dextroleucovorin] | within the pre-established boundaries of 0.80 to 1.25 | 172200 ng·h/mL | 39860 ng/mL | 180400 ng·h/mL | 41870 ng/mL | – |
| Nc1nc(=O)c2c([nH]1)NC[C@H](CNc1ccc(C(=O)N[C@@H](CCC(=O)O)C(=O)O)cc1)N2C=O [(S)-Leucovorin, levoleucovorin] | within the pre-established boundaries of 0.80 to 1.25 | 28470 ng·h/mL | 13270 ng/mL | 29360 ng·h/mL | 14220 ng/mL | – |
